Source: US11230538B2, “Herbicides” (SYNGENTA PARTICIPATIONS AG, priority 2016, dated 2022)

Experiments:
Assay type in all cases: in vivo
[1] = test system: Alopecurus myosuroides (ALOMY); assay: B1 Pre-emergence herbicidal activity; design: key: 5=total damage to plant; 0=no damage to plant; conditions: pre-emergence application, evaluated after 13 days
Outline: (§1)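 Pots of sown seeds were sprayed one day after sowing, pre-emergence, with compound in acetone/water (50:50) containing 0.5% Tween 20. Plants were grown in a glasshouse at 24/16 °C day/night, 14 h light and 65% humidity. Damage was scored after 13 days on a 0 (none) to 5 (total) scale.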

Avena fatua (AVEFA) [2] = assay: B1 Pre-emergence herbicidal activity; design: key: 5=total damage to plant; 0=no damage to plant; conditions: pre-emergence application, evaluated after 13 days
Outline: as §1

[3] = test system: Triticum aestivium (TRZAW); assay: B1 Pre-emergence herbicidal activity; design: key: 5=total damage to plant; 0=no damage to plant; conditions: pre-emergence application, evaluated after 13 days
Outline: as §1

[4] = test system: Echinochloa crus-galli (ECHCG); assay: B1 Pre-emergence herbicidal activity; design: key to Pre-emergence herbicidal activity, ECHCG (damage score 0-5): 5=total damage to plant; 0=no damage to plant; conditions: pre-emergence application, evaluated after 13 days
Outline: as §1

Lolium perenne (LOLPE) [5] = assay: B1 Pre-emergence herbicidal activity; design: key to Pre-emergence herbicidal activity, LOLPE (damage score 0-5): 5=total damage to plant; 0=no damage to plant; conditions: pre-emergence application, evaluated after 13 days
Outline: as §1

Setaria fabenr (SETFA) = assay: B1 Pre-emergence herbicidal activity; design: key to Pre-emergence herbicidal activity, SETFA (damage score 0-5): 5=total damage to plant; 0=no damage to plant; conditions: pre-emergence application, evaluated after 13 days
Outline: as §1

Avena fatua (AVEFA) [6] = assay: B2 Post-emergence herbicidal activity; conditions: post-emergence application, evaluated after 13 days
Outline: (§2)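 Plants grown 8 days in a glasshouse (24/16° C day/night, 14 h light, 65% humidity) were sprayed post-emergence with active ingredient formulated in acetone/water (50:50) containing 0.5% Tween 20. Damage was scored after 13 days on a 0–5 scale (5 = total damage).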

[7] = test system: Echinochloa crus-galli (ECHCG); assay: B2 Post-emergence herbicidal activity; design: key to Post-emergence herbicidal activity, ECHCG (damage score 0-5): 5=total damage to plant; 0=no damage to plant; conditions: post-emergence application, evaluated after 13 days
Outline: as §2

Lolium perenne (LOLPE) [8] = assay: B2 Post-emergence herbicidal activity; conditions: post-emergence application, evaluated after 13 days
Outline: as §2

[9] = test system: Alopecurus myosuroides (ALOMY); assay: B2 Post-emergence herbicidal activity; design: key: 5=total damage to plant; 0=no damage to plant; conditions: post-emergence application, evaluated after 13 days
Outline: as §2

Setaria fabenri (SETFA) = assay: B2 Post-emergence herbicidal activity; design: key: 5=total damage to plant; 0=no damage to plant; conditions: post-emergence application, evaluated after 13 days
Outline: as §2

[10] = test system: Triticum aestivium (TRZAW); assay: B2 Post-emergence herbicidal activity; design: key: 5=total damage to plant; 0=no damage to plant; conditions: post-emergence application, evaluated after 13 days
Outline: as §2

SMILES | Pre-emergence herbicidal activity, ALOMY (damage score 0-5) ([1]; rate 250 g/ha) | Pre-emergence herbicidal activity, AVEFA (damage score 0-5) (Avena fatua (AVEFA) [2]; rate 250 g/ha) | Pre-emergence herbicidal activity, TRAZW (damage score 0-5) ([3]; rate 250 g/ha) | Pre-emergence herbicidal activity, ECHCG (damage score 0-5) ([4]; rate 250 g/ha) | Pre-emergence herbicidal activity, LOLPE (damage score 0-5) (Lolium perenne (LOLPE) [5]; rate 250 g/ha) | Pre-emergence herbicidal activity, SETFA (damage score 0-5) (Setaria fabenr (SETFA); rate 250 g/ha) | Post-emergence herbicidal activity, AVEFA (damage score 0-5) (Avena fatua (AVEFA) [6]; rate 250 g/ha) | Post-emergence herbicidal activity, ECHCG (damage score 0-5) ([7]; rate 250 g/ha) | Post-emergence herbicidal activity, LOLPE (damage score 0-5) (Lolium perenne (LOLPE) [8]; rate 250 g/ha) | Post-emergence herbicidal activity, ALOMY (damage score 0-5) ([9]; rate 250 g/ha) | Post-emergence herbicidal activity, SETFA (damage score 0-5) (Setaria fabenri (SETFA); rate 250 g/ha) | Post-emergence herbicidal activity, TRAZW (damage score 0-5) ([10]; rate 250 g/ha) | Pre-emergence herbicidal activity, ALOMY (damage score 0-5) ([1]; rate 1000 g/ha) | Pre-emergence herbicidal activity, AVEFA (damage score 0-5) (Avena fatua (AVEFA) [2]; rate 1000 g/ha) | Pre-emergence herbicidal activity, TRAZW (damage score 0-5) ([3]; rate 1000 g/ha) | Pre-emergence herbicidal activity, ECHCG (damage score 0-5) ([4]; rate 1000 g/ha) | Pre-emergence herbicidal activity, LOLPE (damage score 0-5) (Lolium perenne (LOLPE) [5]; rate 1000 g/ha) | Pre-emergence herbicidal activity, SETFA (damage score 0-5) (Setaria fabenr (SETFA); rate 1000 g/ha) | Post-emergence herbicidal activity, AVEFA (damage score 0-5) (Avena fatua (AVEFA) [6]; rate 1000 g/ha) | Post-emergence herbicidal activity, ECHCG (damage score 0-5) ([7]; rate 1000 g/ha) | also measured
O=C(Nc1ccc(-c2cncc(F)c2)nc1C(F)(F)F)c1nccs1 [Compound C117] | 0 | 0 | 0 | 1 | 0 | 2 | 3 | 1 | 1 | 1 | 4 | 0 | – | – | – | – | – | – | – | – | –
COC(=O)CCC(=O)N(C(=O)CCC(=O)OC)c1ccc(-c2cncc(F)c2)nc1C(F)(F)F [Compound C119] | – | – | – | – | – | – | – | – | – | – | – | – | 0 | 2 | 0 | 5 | 1 | 5 | 4 | 5 | Post-emergence herbicidal activity, LOLPE (damage score 0-5) (Lolium perenne (LOLPE) [8]; rate 1000 g/ha): 3; Post-emergence herbicidal activity, ALOMY (damage score 0-5) ([9]; rate 1000 g/ha): 1; Post-emergence herbicidal activity, SETFA (damage score 0-5) (Setaria fabenri (SETFA); rate 1000 g/ha): 5; Post-emergence herbicidal activity, TRAZW (damage score 0-5) ([10]; rate 1000 g/ha): 3
O=C(Nc1ccc(-c2cncc(F)c2)nc1C(F)(F)F)c1cncnc1 [Compound C120, N-[6-(5-fluoro-3-pyridyl)-2-(trifluoromethyl)-3-pyridyl]pyrimidine-5-carboxamide] | – | – | – | – | – | – | – | – | – | – | – | – | 0 | 3 | 0 | 4 | 1 | 5 | 3 | 5 | Post-emergence herbicidal activity, LOLPE (damage score 0-5) (Lolium perenne (LOLPE) [8]; rate 1000 g/ha): 3; Post-emergence herbicidal activity, ALOMY (damage score 0-5) ([9]; rate 1000 g/ha): 1; Post-emergence herbicidal activity, SETFA (damage score 0-5) (Setaria fabenri (SETFA); rate 1000 g/ha): 5; Post-emergence herbicidal activity, TRAZW (damage score 0-5) ([10]; rate 1000 g/ha): 2
CCC(=O)N(C(C)=O)c1ccc(-c2cncc(F)c2)nc1C(F)(F)F [Compound C121, N-acetyl-N-[6-(5-fluoro-3-pyridyl)-2-(trifluoromethyl)-3-pyridyl]propanamide] | 0 | 2 | 0 | 3 | 1 | 5 | 4 | 4 | 3 | 1 | 5 | 1 | – | – | – | – | – | – | – | – | –
